pIC50: −log10 of the molar value. Each block holds one molecule with its values, some of them ahead of it.
Tests used:
[1] = biological target: T1, TP receptor (Homo sapiens, UniProt P21731); test: platelet aggregation evoked by I-BOP; type: cell-based; settings: 2 ng/0.5 ml, data not shown
T1 construct: endogenous in cells; host or cells: washed human platelets
T1 sequence (P21731 1-343): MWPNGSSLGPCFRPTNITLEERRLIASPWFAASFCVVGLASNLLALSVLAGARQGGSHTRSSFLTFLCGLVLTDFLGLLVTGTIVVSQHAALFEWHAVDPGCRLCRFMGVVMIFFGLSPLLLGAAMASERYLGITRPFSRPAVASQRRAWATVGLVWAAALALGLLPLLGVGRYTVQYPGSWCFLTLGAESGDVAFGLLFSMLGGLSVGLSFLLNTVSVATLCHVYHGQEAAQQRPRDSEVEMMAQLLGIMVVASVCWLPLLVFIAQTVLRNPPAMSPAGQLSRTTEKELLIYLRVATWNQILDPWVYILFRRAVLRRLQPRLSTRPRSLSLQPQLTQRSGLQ
Protocol: Venous blood was obtained from healthy human subjects who had not taken NSAID's for at least two weeks. Blood was drawn into plastic syringes containing ACD. It was immediately centrifuged at 23° at 200×g for 15 min. The platelet rich plasma was transferred into fresh plastic tubes and centrifuged at 400×g for 5 min. The supernatant was discarded and the platelet sediment was resuspended in fresh medium containing NaCl (137 mM), KCl (1 mM), NaH2PO4, glucose (5.5 mM), HEPES (20 mM) and CaCl2 (1 mM) and allowed to stand at room temperature for 30 min. A platelet count was made, which determined the volume of platelet suspension needed to make up 350×10^6 cells for each measurement. The aliquot was diluted with medium to make 0.5 ml/assay/cuvette. […]
0.5 ml of platelet suspension was added to siliconized glass tubes (four at a time) and heated with magnetic stirring to 37° for 1 min in a platelet aggregometer (PAP-4C). […] The response was recorded for the next 5 min. […] In experiments where the conversion of tritiated PGH2 was to be monitored, the procedure described above was repeated with tritiated PGH2 instead of unlabeled PGH2. After extraction of the sample as described above, the radiolabeled compounds were analyzed by TLC. Dose response curves for varying amounts of test compounds were generated and the data expressed as % inhibition of collagen-induced platelet aggregation. […]

[2] = biological target: T2, platelet TP receptor (Homo sapiens, UniProt P21731); test: binding of 125I-BOP to platelets; settings: 10×10^6 cells/0.5 ml; read-out: IC50 for competition with 125I-BOP binding to platelets
T2 construct: endogenous in cells; host or cells: washed human platelets
T2 sequence (P21731 1-343): T1 sequence (P21731 1-343)
Protocol: Washed platelets were prepared as described above, except that the platelet suspension was made up at a concentration of 10×10^6 cells/0.5 ml. The binding assay involved the addition of radioligand (30,000 cpm ^125I-BOP) to all tubes in triplicate, and either various doses of unlabeled I-BOP (10^−9-10^−7 M), PBT-3 (10^−9-10^−7 M) or U46619 (10^−9-10^−7 M) in 1 μl ethanol. Additional tubes containing excess unlabeled I-BOP were included to assess the extent of non-specific binding.

[3] = intra ocular pressure in rats, eye drops, TonoPen; type: in vivo, Brown Norway rats; settings: one drop daily to left eye, after 10 days' treatment, vs untreated right eye
Protocol: Brown Norway rats (300 g) were purchased from Charles River (St. Constant, Que), and housed (two/cage) in an animal facility with free access to food and water. A light cycle of 12 h on and 12 h off was maintained. Animals were allowed to adjust for one week prior to treatment during which period they were handled daily to get them familiarized with the procedures.
Prior to treatment with test drugs, the rats' intra ocular pressures (IOP) were measured to establish baseline readings. One drop of Didocaine (0.5%, Dioptic Labs, Markham, Ont) was administered to each eye, and the pressure in each eye was measured with a TonoPen (Mentor XL, Innova Medical Ophthalmics, Toronto). The treatment protocol consisted of daily administration of one drop of one of the following substances to the left eye, the right eye being left untreated to act as a control. […] Following this, the animals were left without treatment for 2 weeks (wash-out), and then treatment was started again, the same animals receiving the same drugs. Results are calculated from at least 30 readings/test animal and presented as the mean±SEM (left eye vs right eye), with the exclusion of readings >50 and <10 which were considered spurious and artifactual readings.

[4] = test system: human platelets; test: collagen-evoked aggregation of washed human platelets; type: cell-based; settings: single dose 1 μg added 2 min prior to collagen (2 μg); 350×10^6 washed human platelets in 0.5 ml
Protocol: Venous blood was obtained from healthy human subjects who had not taken NSAID's for at least two weeks. Blood was drawn into plastic syringes containing ACD. […] The platelet rich plasma was transferred into fresh plastic tubes and centrifuged at 400×g for 5 min. […] A platelet count was made, which determined the volume of platelet suspension needed to make up 350×10^6 cells for each measurement. The aliquot was diluted with medium to make 0.5 ml/assay/cuvette. Appropriate calibration of the aggregometer (PAP-4C) for 0% and 100% transmission was carried out through the use of a sample of platelet suspension and cell-free medium (37).
(§1) 0.5 ml of platelet suspension was added to siliconized glass tubes (four at a time) and heated with magnetic stirring to 37° for 1 min in a platelet aggregometer (PAP-4C). Either vehicle alone (ethanol, 1 μl) or hepoxilin analog was then added, followed two min later by agonist (collagen: 2 μg; PGH2: 100 ng/0.5 ml; U46619: 10 ng/0.5 ml or I-BOP: 2 ng/0.5 ml). The response was recorded for the next 5 min. In experiments where analysis of TxB2 and HHT were to be made by HPLC, the platelet suspension at the end of the experiment was diluted with ethyl acetate, 100 ng of prostaglandin B1 was added as internal standard, and the mixture was acidified to pH 3 with 0.1 N HCl. After centrifugation, the organic layer was separated, washed twice with water to neutrality, and evaporated to dryness. Half of the sample was taken and was resuspended in 1 ml ethyl acetate containing 20 μg ADAM reagent, and was left in the dark for 2 h (38). The solvent was then evaporated and the residue was acetylated with a solution of pyridine/acetic anhydride (3/1, v/v) during 16 h at 23°. The reagents were evaporated to dryness and the residue was resuspended in acetonitrile/water for HPLC analysis. In experiments where the conversion of tritiated PGH2 was to be monitored, the procedure described above was repeated with tritiated PGH2 instead of unlabeled PGH2. After extraction of the sample as described above, the radiolabeled compounds were analyzed by TLC. Dose response curves for varying amounts of test compounds were generated and the data expressed as % inhibition of collagen-induced platelet aggregation. Each point was investigated 5 times and statistical analysis of the data was carried out using Macintosh Statview statistical software.

[5] = biological target: T1, TP receptor; test: platelet aggregation evoked by the TxA2 mimic U46619; type: cell-based; settings: aspirin 20 μg
Protocol: Venous blood was obtained from healthy human subjects who had not taken NSAID's for at least two weeks. Blood was drawn into plastic syringes containing ACD. It was immediately centrifuged at 23° at 200×g for 15 min. The platelet rich plasma was transferred into fresh plastic tubes and centrifuged at 400×g for 5 min. The supernatant was discarded and the platelet sediment was resuspended in fresh medium containing NaCl (137 mM), KCl (1 mM), NaH2PO4, glucose (5.5 mM), HEPES (20 mM) and CaCl2 (1 mM) and allowed to stand at room temperature for 30 min. A platelet count was made, which determined the volume of platelet suspension needed to make up 350×10^6 cells for each measurement. The aliquot was diluted with medium to make 0.5 ml/assay/cuvette. Appropriate calibration of the aggregometer (PAP-4C) for 0% and 100% transmission was carried out through the use of a sample of platelet suspension and cell-free medium (37).
as §1

[6] = cited from earlier work

- aggregation caused by the agonist [1]: 70%
- pIC50 [2]: 9.30
Compound: O=C(O)CCC/C=C\C[C@@H]1[C@@H](/C=C/[C@H](O)COc2ccc(I)cc2)[C@H]2CC[C@@H]1O2 (relative stereo) [I-BOP, 5-heptenoic acid, 7-[3-[3-hydroxy-4-(4-iodophenoxy)-1-butenyl]-7-oxabicyclo [2.2.1]hept-2-yl]-,[15-[1α, 2α(Z), 3β(1E,3S*), 4α]], reference compound]

Compound: CC(C)(C)NC[C@H](O)COc1cccc2c1CCCC2=O [O-bunolol, reference compound]
- effect on intra ocular pressure (IOP) ([3]; 0.5%): non-significant rise

Compound: CCCCC/C=C\CC1CC1/C=C/[C@@H](O)C/C=C\CCCC(=O)OC (stereo partly drawn) [PBT-1, 8(S)-hydroxy-11,12-cyclopropyl-eicosa-5Z,9E,14Z-trienoic acid methyl ester]
- inhibition of collagen-evoked aggregation [4]: inhibited the collagen effect

Compound: CCCCC/C=C\CC1CC1/C=C/C(O)C/C=C\CCCC(=O)OC [PBT-2, 8(R)-hydroxy-11,12-cyclopropyl-eicosa-5Z,9E,14Z-trienoic acid methyl ester]
- inhibition of collagen-evoked aggregation [4]: inhibited the collagen effect

Compound: CCCCC/C=C\CC1CC1[C@H](O)/C=C\C/C=C\CCCC(=O)OC (stereo partly drawn) [PBT-4, 10(R)-hydroxy-11,12-cyclopropyl-eicosa-5Z,8Z,14Z-trienoic acid methyl ester]
- inhibition of collagen-evoked aggregation [4]: inhibited the collagen effect

Compound: CCCCC/C=C\CC1CC1[C@@H](O)/C=C\C/C=C\CCCC(=O)N[C@H]1C(O)O[C@H](CO)[C@H](O)[C@@H]1O (stereo partly drawn) [PBT-30, 10(S)-hydroxy-11,12-cyclopropyl-eicosa-5Z, 8Z, 14Z-trienoic acid galactosamide]
- effect on intra ocular pressure (IOP) ([3]; 0.005%): tended to reduce IOP but the effect did not reach statistical significance

- pIC50 [2]: 8.39
Compound: CCCCCC(O)C=CC1C2CC(CO2)C1CC=CCCCC(=O)O (stereo not drawn) [U46619, 5-heptenoic acid, 7-[6-(3-hydroxy-1-octenyl)-2-oxabicyclo-[2,2,1]-hept-5yl]-[1R-[1α,4α,5β(z), 6α(1E,3S*)]-9,11-dideoxy-9α,11α-methanoepoxyprostaglandin F2α, reference compound]

- effect on U46619-evoked aggregation [5]: did not block
Compound: CC(=O)Oc1ccccc1C(=O)O [aspirin, reference compound]

Compound: CC(C)OC(=O)CCC/C=C\C[C@@H]1[C@@H](CC[C@@H](O)CCc2ccccc2)[C@H](O)C[C@@H]1O [latanoprost, reference compound]
- effect on intra ocular pressure (IOP) ([3]; 0.005%): significant reduction in IOP

Compound: CCCCC[C@H](O)/C=C/[C@H]1O[C@H]2C[C@H](O2)[C@@H]1C/C=C\CCCC(=O)O [thromboxane A2 (TxA2), thromboxane A2]
- half life in the body [6]: 30 s

— patent US8071654B2, “Inhibitors of thromboxane formation and action” (priority 2000, dated 2011)
